Experiments:
human recombinant HDAC1 = target: T1, human recombinant HDAC1 (Homo sapiens, UniProt Q13547); assay: HDAC1 enzyme activity inhibition assay (HDAC Fluorimetric Drug Discovery Kit); type: biochemical; conditions: human recombinant HDAC1, Fluor de Lys substrate 10 μM, 30° C. 60 minutes
T1 construct: purchased Enzo Life Science BML-SE456
Description: In order to examine the HDAC6 selectivity of the compounds of formula I of the present invention by HDAC1 and HDAC6 enzymatic activity inhibition assays, an experiment was performed using a conventional substance as a control.
HDAC enzyme activity was measured using a HDAC Fluorimetric Drug Discovery Kit (BML-AK511, 516, Enzo Life Science). For the HDAC1 enzyme activity test, human recombinant HDAC1 (BML-SE456) was used as an enzyme source, and Fluor de Lys®-“SIRT1 (BNL-KI177) was used as a substrate. A 5-fold dilution of the compound was seeded into a 96-well plate, and then 0.3 μg of the enzyme and 10 μM of the substrate were added to each well of the plate and allowed to react at 30° C. for 60 minutes. Then, Fluor de Lys®-Developer II (BML-KI176) was added thereto and allowed to react for 30 minutes, after which the fluorescence value (Ex 360, Em 460) was measured using a multi-plate reader (Flexstation 3, Molecular Device). The HDAC6 enzyme was tested using human recombinant HDAC6 (382180) (Calbiochem) according to the same protocol as the HDAC1 enzyme activity test method. Based on the resulting values, each IC5, value was calculated using GraphPad Prism4.0 program.

human recombinant HDAC6 = target: T2, human recombinant HDAC6 (Homo sapiens, UniProt Q9UBN7); assay: HDAC6 enzyme activity inhibition assay (HDAC Fluorimetric Drug Discovery Kit); type: biochemical; conditions: for HDAC6 selectivity (fold): HDAC6 over HDAC1; for IC50: human recombinant HDAC6, same protocol as HDAC1, read-out: HDAC6
T2 construct: purchased Calbiochem 382180
T2 sequence (Q9UBN7 1-1215): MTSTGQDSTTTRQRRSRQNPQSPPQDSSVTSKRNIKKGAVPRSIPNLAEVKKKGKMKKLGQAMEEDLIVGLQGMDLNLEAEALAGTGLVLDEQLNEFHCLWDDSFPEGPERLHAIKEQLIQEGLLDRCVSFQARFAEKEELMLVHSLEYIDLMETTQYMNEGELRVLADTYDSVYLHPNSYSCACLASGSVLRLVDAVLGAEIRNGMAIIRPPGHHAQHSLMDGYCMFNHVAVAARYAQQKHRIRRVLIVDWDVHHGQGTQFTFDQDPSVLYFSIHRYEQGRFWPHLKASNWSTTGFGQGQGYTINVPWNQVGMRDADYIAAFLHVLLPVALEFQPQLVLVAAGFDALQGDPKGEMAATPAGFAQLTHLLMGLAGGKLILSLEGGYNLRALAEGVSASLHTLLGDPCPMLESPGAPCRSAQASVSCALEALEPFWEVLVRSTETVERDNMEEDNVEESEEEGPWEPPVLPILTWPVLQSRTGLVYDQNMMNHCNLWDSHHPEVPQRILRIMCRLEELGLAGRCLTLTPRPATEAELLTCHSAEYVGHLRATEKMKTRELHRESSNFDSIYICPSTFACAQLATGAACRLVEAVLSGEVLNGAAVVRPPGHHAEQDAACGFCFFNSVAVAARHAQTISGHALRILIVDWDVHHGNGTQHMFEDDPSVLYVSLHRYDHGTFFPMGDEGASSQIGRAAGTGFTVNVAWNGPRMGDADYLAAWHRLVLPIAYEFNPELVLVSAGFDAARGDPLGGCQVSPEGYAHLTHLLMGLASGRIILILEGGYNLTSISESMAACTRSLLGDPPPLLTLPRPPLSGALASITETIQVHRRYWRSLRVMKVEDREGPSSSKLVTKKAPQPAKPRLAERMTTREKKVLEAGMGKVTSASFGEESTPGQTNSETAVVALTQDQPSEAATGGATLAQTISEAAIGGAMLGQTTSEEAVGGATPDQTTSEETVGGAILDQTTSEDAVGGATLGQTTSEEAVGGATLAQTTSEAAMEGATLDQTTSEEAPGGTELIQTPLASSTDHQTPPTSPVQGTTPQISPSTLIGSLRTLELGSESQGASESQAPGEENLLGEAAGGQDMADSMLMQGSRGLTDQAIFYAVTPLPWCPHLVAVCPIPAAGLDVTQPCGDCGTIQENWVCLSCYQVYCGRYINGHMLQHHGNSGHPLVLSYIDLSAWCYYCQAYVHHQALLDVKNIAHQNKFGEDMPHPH
In short: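 Human recombinant HDAC1 or HDAC6 (0.3 μg) reacted with 10 μM Fluor de Lys-SIRT1 substrate and 5-fold compound dilutions for 60 min at 30 °C. Developer II added for 30 min, fluorescence read at Ex 360/Em 460; IC50 calculated from the readings.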

T1 sequence (Q13547 whole entry): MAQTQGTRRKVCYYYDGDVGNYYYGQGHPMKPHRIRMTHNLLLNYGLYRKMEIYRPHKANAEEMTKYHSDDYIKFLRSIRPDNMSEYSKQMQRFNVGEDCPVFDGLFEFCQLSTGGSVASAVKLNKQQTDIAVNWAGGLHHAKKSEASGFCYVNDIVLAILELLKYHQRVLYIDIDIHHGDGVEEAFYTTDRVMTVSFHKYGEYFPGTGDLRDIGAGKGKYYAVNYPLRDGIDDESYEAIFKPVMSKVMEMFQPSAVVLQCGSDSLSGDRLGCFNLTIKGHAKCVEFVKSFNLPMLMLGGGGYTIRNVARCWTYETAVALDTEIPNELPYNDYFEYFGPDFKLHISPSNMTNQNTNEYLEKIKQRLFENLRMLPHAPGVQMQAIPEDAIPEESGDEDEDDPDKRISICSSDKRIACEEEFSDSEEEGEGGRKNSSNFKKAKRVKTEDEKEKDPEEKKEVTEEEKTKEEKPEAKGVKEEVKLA

SMILES	IC50 (human recombinant HDAC1) [µM]	HDAC6 selectivity (fold) (human recombinant HDAC6)	IC50 (human recombinant HDAC6) [nM]
CCN1CCN(C(=O)N(Cc2ccc(-c3nnc(C(F)F)o3)cc2F)c2ccc3cnn(C)c3c2)CC1 [Compound 21735, N-(4-(5-(difluoromethyl)-1,3,4-oxadiazol-2-yl)-2-fluorobenzyl)-4-ethyl-N-(1-methyl-1H-indazol-6-yl)piperazine-1-carboxamide]	19.1	662	29
CCN1CCN(C(=O)N(Cc2ccc(-c3nnc(C(F)F)o3)cc2F)c2ccc(F)c(Br)c2)CC1 [Compound 21656, N-(3-bromo-4-fluorophenyl)-N-(4-(5-(difluoromethyl)-1,3,4-oxadiazol-2-yl)-2-fluorobenzyl)-4-ethylpiperazine-1-carboxamide]	36.5	1122	33
O=C(N1CCOCC1)N(Cc1ccc(-c2nnc(C(F)(F)F)o2)cn1)c1ccc(Cl)cc1 [Compound 21848, N-(4-chlorophenyl)-N-((5-(5-(trifluoromethyl)-1,3,4-oxadiazol-2-yl)pyridin-2-yl)methyl) morpholine-4-carboxamide]	41.9	161	261
Cn1ncc2ccc(N(Cc3ccc(-c4nnc(C(F)F)o4)cc3F)C(=O)N3CCOCC3)cc21 [Compound 21724, N-(4-(5-(Difluoromethyl)-1,3,4-oxadiazol-2-yl)-2-fluorobenzyl)-N-(1-methyl-1H-indazol-6-yl)morpholine-4-carboxamide]	20.7	736	28
CCN1CCN(C(=O)N(Cc2ccc(-c3nnc(C(F)(F)F)o3)cc2F)c2ccc(C)c(Cl)c2)CC1 [Compound 21660, N-(3-chloro-4-methylphenyl)-4-ethyl-N-(2-fluoro-4-(5-(trifluoromethyl)-1,3,4-oxadiazol-2-yl)benzyl)piperazine-1-carboxamide]	24.8	80	309
O=C(N1CCS(=O)(=O)CC1)N(Cc1ccc(-c2nnc(C(F)(F)F)o2)cc1)c1ccc(-c2ccccc2)cc1 [Compound 21485, N-([1,1′-biphenyl]-4-yl)-N-(4-(5-(trifluoromethyl)-1,3,4-oxadiazol-2-yl)benzyl)thiomorpholine-4-carboxamide 1,1-dioxide]	4.42	12	369
O=C(N1CCS(=O)(=O)CC1)N(Cc1ccc(-c2nnc(C(F)F)o2)cc1F)c1ccccc1F [Compound 21808, N-(4-(5-(difluoromethyl)-1,3,4-oxadiazol-2-yl)-2-fluorobenzyl)-N-(2-fluorophenyl)thiomorpholine-4-carboxamide 1,1-dioxide]	42.6	2023	21
CCN1CCN(C(=O)N(Cc2ccc(-c3nnc(C(F)(F)F)o3)cn2)c2ccc(Cl)cc2)CC1 [Compound 21864, N-(4-Chlorophenyl)-4-ethyl-N-((5-(5-(trifluoromethyl)-1,3,4-oxadiazol-2-yl)pyridin-2-yl)methyl)piperazine-1-carboxamide]	28.8	190	152
O=C(N1CCOCC1)N(Cc1ccc(-c2nnc(C(F)(F)F)o2)cn1)c1cccc(F)c1 [Compound 21844, N-(3-fluorophenyl)-N-((5-(5-(trifluoromethyl)-1,3,4-oxadiazol-2-yl)pyridin-2-yl)methyl) morpholine-4-carboxamide]	32.3	404	80
O=C(N1CCOCC1)N(Cc1ccc(-c2nnc(C(F)F)o2)cn1)c1ccc(F)cc1 [Compound 21839, N-((5-(5-(difluoromethyl)-1,3,4-oxadiazol-2-yl)pyridin-2-yl)methyl)-N-(4-fluorophenyl) morpholine-4-carboxamide]	56.7	1689	34
O=C(N1CCOCC1)N(Cc1ccc(-c2nnc(C(F)(F)F)o2)cc1F)c1ccc(F)cc1 [Compound 21842, N-(2-fluoro-4-(5-(trifluoromethyl)-1,3,4-oxadiazol-2-yl)benzyl)-N-(4-fluorophenyl)morpholine-4-carboxamide]	25.2	135	187
CCN1CCN(C(=O)N(Cc2ccc(-c3nnc(C(F)(F)F)o3)cc2F)c2ccc(F)c(Br)c2)CC1 [Compound 21658, N-(3-bromo-4-fluorophenyl)-4-ethyl-N-(2-fluoro-4-(5-(trifluoromethyl)-1,3,4-oxadiazol-2-yl)benzyl)piperazine-1-carboxamide]	8.44	59	144
COc1ccc(N(Cc2ccc(-c3nnc(C(F)(F)F)o3)cc2)C(=O)N2CCS(=O)(=O)CC2)cc1 [Compound 21390, N-(4-methoxyphenyl)-N-(4-(5-(trifluoromethyl)-1,3,4-oxadiazol-2-yl)benzyl)thiomorpholine-4-carboxamide 1,1-dioxide]	5.28	17	317
CC(C)(C)CN1CCN(Cc2ccc(N(Cc3ccc(-c4nnc(C(F)(F)F)o4)cc3F)C(=O)N3CCS(=O)(=O)CC3)cc2)CC1 [Compound 21897, N-(2-fluoro-4-(5-(trifluoromethyl)-1,3,4-oxadiazol-2-yl)benzyl)-N-(4-((4-neopentylpiperazin-1-yl)methyl)phenyl)thiomorpholine-4-carboxamide 1,1-dioxide]	68.1	140	487
O=C(N1CCOCC1)N(Cc1ccc(-c2nnc(C(F)F)o2)cc1F)c1cccc(F)c1 [Compound 21845, N-(4-(5-(difluoromethyl)-1,3,4-oxadiazol-2-yl)-2-fluorobenzyl)-N-(3-fluorophenyl)morpholine-4-carboxamide]	62.3	1919	32
O=C(N1CCS(=O)(=O)CC1)N(Cc1ccc(-c2nnc(C(F)(F)F)o2)cc1F)c1ccc(-c2ccncc2)cc1 [Compound 21519, N-(2-fluoro-4-(5-(trifluoromethyl)-1,3,4-oxadiazol-2-yl)benzyl)-N-(4-(pyridin-4-yl)phenyl)thiomorpholine-4-carboxamide 1,1-dioxide]	2.65	20	131
Cn1ncc2ccc(-c3ccc(N(Cc4ccc(-c5nnc(C(F)(F)F)o5)cc4)C(=O)N4CCS(=O)(=O)CC4)cc3)cc21 [Compound 21487, N-(4-(1-methyl-1H-indazol-6-yl)phenyl)-N-(4-(5-(trifluoromethyl)-1,3,4-oxadiazol-2-yl)benzyl)thiomorpholine-4-carboxamide 1,1-dioxide]	1.95	6	344
O=C(N1CCOCC1)N(Cc1ccc(-c2nnc(C(F)(F)F)o2)cc1F)c1cccc(F)c1 [Compound 21846, N-(2-fluoro-4-(5-(trifluoromethyl)-1,3,4-oxadiazol-2-yl)benzyl)-N-(3-fluorophenyl)morpholine-4-carboxamide]	21.3	173	123
